For experiment [1], the system named is Huh-7 HCV replicon cells (sub-line 5-15; genotype 1b). The experiment in a line: Replicon ELISA cell based assay, genotype 1b (sub-line 5-15). On the set-up: species or system HCV genotype 1b. Conditions: Hepatitis C virus, Huh-7 genotype 1b replicon sub-line 5-15, 72 hours. The method, then: (§1) Replicon ELISA Cell Based Assay
(§2) 100 μL of medium containing 10% FCS were added to each well of clear, flat-bottomed 96 well microplates, excepting wells in the top row. Test compound was diluted in assay medium to twice the final required starting concentration from a 40 mM stock solution in DMSO. 200 μL of the starting dilution were introduced into two wells each in the top row and doubling dilutions made down the plate by the sequential transfer of 100 μL aliquots with thorough mixing in the wells; the final 100 μL were discarded. The two bottom rows were not used for compound dilutions. Huh-7 HCV replicon cell monolayers nearing confluency were stripped from growth flasks with versene-trypsin solution and the cells were resuspended in assay medium at either 2×10^5 cells/mL (sub-line 5-15; genotype 1b; Lohmann, V., Korner, F., Koch, J-O., Herian, U., Thielmann, L. and Bartenschlager, R., 1999, Science, 285, pp 110-113) or at 3×10^5 cells/mL (genotype 1a; Gu, B., Gates, A.T., Isken, O., Behrens, S. E. and Sarisky, R. T., J. Virol., 2003, 77, 5352-5359). 100 μL of cell suspension were added to all wells and the plates incubated at 37° C. for 72 hours in a 5% CO2 atmosphere.
(§3) Following incubation, the assay medium was aspirated from the plates. The cell sheets were washed by gentle immersion in phosphate buffered saline (PBS), which was then aspirated off, and fixed with acetone:methanol (1:1) for 5 minutes. Following a further wash with PBS, 100 μL of ELISA diluent (PBS+0.05% v/v Tween 20+2% w/v skimmed milk powder) were added to all wells and the plates incubated at 37° C. for 30 minutes on an orbital platform. The diluent was removed and each well then received 50 μL of a 1/200 dilution of anti-HCV specific, murine, monoclonal antibody (either Virostat #1872 or #1877), except for wells in one of the compound-free control rows which received diluent alone to act as negative controls. The plates were incubated at 37° C. for 2 hours and washed 3 times with PBS/0.05% Tween 20, then 50 μL of horseradish peroxidase conjugated, anti-mouse, rabbit polyclonal serum (Dako #P0260), diluted 1/1000, were added to all wells. The plates were incubated for a further hour, the antibody removed and the cell sheets washed 5 times with PBS/Tween and blotted dry. The assay was developed by the addition of 50 μL of ortho-phenylenediamine/peroxidase substrate in urea/citrate buffer (SigmaFast, Sigma #P-9187) to each well, and colour allowed to develop for up to 15 minutes. The reaction was stopped by the addition of 25 μL per well of 2 M sulphuric acid and the plates were read at 490 nm on a Fluostar Optima spectrophotometer.
(§4) The substrate solution was removed and the plates were washed in tap water, blotted dry and the cells stained with 5% carbol fuchsin in water for 30 minutes. The stain was discarded and the cell sheets washed, dried and examined microscopically to assess cytotoxicity.
(§5) The absorbance values from all compound-free wells that had received both primary and secondary antibodies were averaged to obtain a positive control value. The mean absorbance value from the compound-free wells that had not received the primary antibody was used to provide the negative (background) control value. The readings from the duplicate wells at each compound concentration were averaged and, after the subtraction of the mean background from all values, were expressed as a percentage of the positive control signal. The quantifiable and specific reduction of expressed protein detected by the ELISA in the presence of a drug can be used as a measure of replicon inhibition. GraFit software (Erithacus Software Ltd.) was used to plot the curve of percentage inhibition against compound concentration and derive the 50% inhibitory concentration (IC50) for the compound.
(Replicon systems follow genome replication, usually without infectious particles.)

For experiment [2], the system named is Huh-7 HCV replicon cells (genotype 1a). The experiment in a line: Replicon ELISA cell based assay, genotype 1a. The conditions noted are these: Hepatitis C virus, Huh-7 genotype 1a replicon, 72 hours. On the set-up: species or system HCV genotype 1a. The method, then:
as §1, §2, §3, §4, §5

Molecules are shown by their SMILES. Bounds are passed on as bounds.

These results are taken from patent US20070270475A1, “4-Methoxy-Pyrrolidine-2-Carboxylic Acid Compounds and Derivatives Thereof as Hepatitis C Virus Inhibitors” (priority 2004, published 2007).

What is called IC50 is the concentration at which inhibition is half-maximal. For the compound `COC[C@H]1C[C@@](Cc2cscn2)(C(=O)O)N(C(=O)c2ccc(C(C)(C)C)c(OC)c2)[C@H]1c1nccs1` (racemic) [Example 3, rel-(2R,4S,5R)-1-(3-Methoxy-4-tert-butylbenzoyl)-4-(methoxymethyl)-5-(1,3-thiazol-2-yl)-2-(1,3-thiazol-4-ylmethyl)pyrrolidine-2-carboxylic acid], the IC50 is less than 0.15 µM in experiment [1] and less than 10 µM in experiment [2].
As to `COC[C@H]1C[C@@](CC(C)C)(C(=O)O)N(C(=O)c2ccc(C(C)(C)C)c(OC)c2)[C@H]1c1ncc(C)s1` (racemic) [Compound C, rel-(2S,4S,5R)-2-isobutyl-1-(3-methoxy-4-tert-butylbenzoyl)-4-methoxymethyl-5-(5-methyl-1,3-thiazol-2-yl)pyrrolidine-2-carboxylic acid, reference compound], the IC50 in experiment [2] lay in the range of 10 to 100 µM.
For the compound `COC[C@H]1C[C@@](CC(C)C)(C(=O)O)N(C(=O)c2ccc(C(C)(C)C)c(OC)c2)[C@H]1c1nccs1` (racemic) [Compound A, rel-(2S,4S,5R)-2-isobutyl-1-(3-methoxy-4-tert-butylbenzoyl)-4-methoxymethyl-5-(1,3-thiazol-2-yl)pyrrolidine-2-carboxylic acid, reference compound], the values for the IC50 in experiment [1] and in experiment [2] were 0.15 to 10 µM and 10 to 100 µM, respectively.
The like results for `COC[C@H]1C[C@@](Cc2cscn2)(C(=O)O)N(C(=O)c2ccc(C(C)(C)C)c(OC)c2)[C@H]1c1ncc(C)s1` (racemic) [Example 1, rel-(2R,4S,5R)-1-(3-Methoxy-4-tert-butylbenzoyl)-4-(methoxymethyl)-5-(5-methyl-1,3-thiazol-2-yl)-2-(1,3-thiazol-4-ylmethyl)pyrrolidine-2-carboxylic acid] were, in that order, less than 0.15 µM and less than 10 µM.
The like results for `COC[C@H]1C[C@@](Cc2ccccc2)(C(=O)O)N(C(=O)c2ccc(C(C)(C)C)c(OC)c2)[C@H]1c1nccs1` (racemic) [Compound E, rel-(2R,4S,5R)-2-benzyl-1-(3-methoxy-4-tert-butylbenzoyl)-4-methoxymethyl-5-(1,3-thiazol-2-yl)-pyrrolidine-2-carboxylic acid, reference compound] were, in that order, 0.15 to 10 µM and more than 100 µM.
Take `COC[C@H]1C[C@@](Cn2cccn2)(C(=O)O)N(C(=O)c2ccc(C(C)(C)C)c(OC)c2)[C@H]1c1nccs1` (racemic) [Example 6, rel-(2R,4S,5R)-1-(3-Methoxy-4-tert-butylbenzoyl)-4-(methoxymethyl)-2-(1H-pyrazol-1-ylmethyl)-5-(1,3-thiazol-2-yl)pyrrolidine-2-carboxylic acid]: the IC50 in experiment [1] is less than 0.15 µM; in experiment [2], less than 10 µM.
In the same order, the values of `COC[C@H]1C[C@@](Cn2cccn2)(C(=O)O)N(C(=O)c2ccc(C(C)(C)C)c(OC)c2)[C@H]1c1ncc(C)s1` (single isomer, unassigned; enantiomer a) [Example 11] are less than 0.15 µM and less than 10 µM.
In the case of `COC[C@H]1C[C@@](Cc2cscn2)(C(=O)O)N(C(=O)c2ccc(C(C)(C)C)c(OC)c2)[C@H]1c1ncc(C)s1` (single isomer, unassigned; enantiomer a) [Example 2], the figures for the IC50 in experiment [1] and in experiment [2] were less than 0.15 µM and less than 10 µM, respectively.
`COC[C@H]1C[C@@](Cc2cscn2)(C(=O)O)N(C(=O)c2ccc(C(C)(C)C)c(OC)c2)[C@H]1c1nccs1` (single isomer, unassigned; enantiomer a) [Example 12]: the IC50 in experiment [1] is less than 0.15 µM; in experiment [2], less than 10 µM.
In the same order, the values of `COC[C@H]1C[C@@](Cc2ccsn2)(C(=O)O)N(C(=O)c2ccc(C(C)(C)C)c(OC)c2)[C@H]1c1nccs1` (racemic) [Example 4, rel-(2R,4S,5R)-1-(3-Methoxy-4-tert-butylbenzoyl)-4-(methoxymethyl)-5-(1,3-thiazol-2-yl)-2-(1,2-thiazol-3-ylmethyl)pyrrolidine-2-carboxylic acid] are less than 0.15 µM and less than 10 µM.
In the same order, the values of `COC[C@H]1C[C@@](Cc2ccsn2)(C(=O)O)N(C(=O)c2ccc(C(C)(C)C)c(OC)c2)[C@H]1c1nccs1` (single isomer, unassigned; enantiomer a) [Example 5] are less than 0.15 µM and less than 10 µM.
Turning to `COCC1CC(CC(C)C)(C(=O)O)N(C(=O)c2ccc(C(C)(C)C)c(OC)c2)C1c1ncc(C)s1` (single isomer, unassigned; enantiomer a) [Compound D, reference compound], the IC50 in experiment [1] was in the range of 0.15 to 10 µM; in experiment [2], 10 to 100 µM.
In the same order, the values of `COC[C@H]1C[C@@](Cc2nccs2)(C(=O)O)N(C(=O)c2ccc(C(C)(C)C)c(OC)c2)[C@H]1c1ncc(C)s1` (racemic) [Example 8, rel-(2R,4S,5R)-1-(3-Methoxy-4-tert-butylbenzoyl)-4-(methoxymethyl)-5-(5-methyl-1,3-thiazol-2-yl)-2-(1,3-thiazol-2-ylmethyl)pyrrolidine-2-carboxylic acid] are 0.15 to 10 µM and less than 10 µM.
In the same order, the values of `COC[C@H]1C[C@@](Cn2cccn2)(C(=O)O)N(C(=O)c2ccc(C(C)(C)C)c(OC)c2)[C@H]1c1ncc(C)s1` (racemic) [Example 10, rel-(2R,4S,5R)-1-(3-Methoxy-4-tert-butylbenzoyl)-4-(methoxymethyl)-5-(5-methyl-1,3-thiazol-2-yl)-2-(1H-pyrazol-1-ylmethyl)pyrrolidine-2-carboxylic acid] are less than 0.15 µM and less than 10 µM.
Consider `COC[C@H]1C[C@@](Cc2ccsn2)(C(=O)O)N(C(=O)c2ccc(C(C)(C)C)c(OC)c2)[C@H]1c1ncc(C)s1` (racemic) [Example 9, rel-(2R,4S,5R)-1-(3-Methoxy-4-tert-butylbenzoyl)-4-(methoxymethyl)-5-(5-methyl-1,3-thiazol-2-yl)-2-(1,2-thiazol-3-ylmethyl)pyrrolidine-2-carboxylic acid], for which the IC50 in experiment [1] was less than 0.15 µM; in experiment [2], less than 10 µM.
In the same order, the values of `COC[C@H]1C[C@@](CC(C)C)(C(=O)O)N(C(=O)c2ccc(C(C)(C)C)c(OC)c2)[C@H]1c1nccs1` [Compound B, (2S,4S,5R)-2-isobutyl-1-(3-methoxy-4-tert-butylbenzoyl)-4-methoxymethyl-5-(1,3-thiazol-2-yl)pyrrolidine-2-carboxylic acid, reference compound] are 0.15 to 10 µM and 10 to 100 µM.
In the same order, the values of `COC[C@H]1C[C@@](Cn2cccn2)(C(=O)O)N(C(=O)c2ccc(C(C)(C)C)c(OC)c2)[C@H]1c1nccs1` (single isomer, unassigned) [Example 7] are less than 0.15 µM and less than 10 µM.
